Reference: PubChem BioAssay AID256 (DTP/NCI, 2004)
“And” between values parts separate entries of the source, which are not always exact repeats. Equal values may be shown once. Toxic doses and inconclusive results are not listed.

System: CD2F1 mice, L1210 leukemia ip, survival T/C
Assay: NCI In Vivo Anticancer Drug Screen. Data for tumor model L1210 Leukemia (intraperitoneal) in CD2F1 (CDF1) mice
Conditions: higher = longer survival
In short: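 Implant tumor; dose compound or vehicle; measure endpoint in both groups; report treated divided by control.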

[1] = endpoint: mean survival time, dose: 100.0 mg/kg/injection, schedule: Q01DX009 (ip), vehicle: saline
[2] = endpoint: mean survival time, dose: 200.0 mg/kg/injection, schedule: Q01DX009 (ip), vehicle: saline
[3] = endpoint: mean survival time, dose: 400.0 mg/kg/injection, schedule: Q01DX009 (ip), vehicle: saline
[4] = endpoint: mean survival time, dose: 25.0 mg/kg/injection, schedule: Q01DX005 (ip), vehicle: distilled water + Tween-80
[5] = endpoint: mean survival time, dose: 50.0 mg/kg/injection, schedule: Q01DX005 (ip), vehicle: distilled water + Tween-80

CCC(CO)(CO)[N+](=O)[O-] was tested. Which T/C [1] did it give?
The T/C was 100 % of control.

And the T/C [2]?
The T/C was 100 % of control.

What about the T/C [3] of the same compound?
The T/C was 94 % of control.

Which results are given for O=c1[nH]c(=O)c2n[nH]nc2[nH]1?
T/C (endpoint: mean survival time, dose: 23.0 mg/kg/injection, schedule: Q01DX009 (ip), vehicle: saline): 104 % of control; T/C (endpoint: mean survival time, dose: 35.0 mg/kg/injection, schedule: Q01DX009 (ip), vehicle: saline): 101 % of control; T/C (endpoint: mean survival time, dose: 50.0 mg/kg/injection, schedule: Q01DX009 (ip), vehicle: saline): 98 % of control

For O=C(Cc1ccccc1)NC(CSSCC(NC(=O)Cc1ccccc1)C(=O)O)C(=O)O (configuration not stated), which T/C (endpoint: mean survival time, dose: 100.0 mg/kg/injection, schedule: Q01DX009 (ip), vehicle: saline with Tween-80) is on record?
The T/C was 101 % of control.

What about the T/C (endpoint: mean survival time, dose: 200.0 mg/kg/injection, schedule: Q01DX009 (ip), vehicle: saline with Tween-80) of the same compound?
The T/C was 98 % of control.

And the T/C (endpoint: mean survival time, dose: 400.0 mg/kg/injection, schedule: Q01DX009 (ip), vehicle: saline with Tween-80)?
Its T/C is 93 % of control.

CC12CCC3C(CCC4CC(OC(=O)Cc5ccc(N(CCCl)CCCl)cc5)CCC43C)C1CCC(=O)N2 (configuration not stated) was tested. Which T/C (endpoint: mean survival time, dose: 0.75 mg/kg/injection, schedule: Q01DX009 (ip), vehicle: saline with Tween-80) did it give?
The T/C was 98 % of control.

And the T/C (endpoint: mean survival time, dose: 1.5 mg/kg/injection, schedule: Q01DX009 (ip), vehicle: saline with Tween-80)?
Its T/C is 102 % of control.

What about the T/C (endpoint: mean survival time, dose: 3.0 mg/kg/injection, schedule: Q01DX009 (ip), vehicle: saline with Tween-80) of the same compound?
Its T/C is 108 % of control.

And the T/C (endpoint: mean survival time, dose: 6.0 mg/kg/injection, schedule: Q01DX009 (ip), vehicle: saline with Tween-80)?
Its T/C is 112 % of control.

What about the T/C (endpoint: mean survival time, dose: 12.0 mg/kg/injection, schedule: Q01DX009 (ip), vehicle: saline with Tween-80) of the same compound?
Its T/C is 122 % of control.

And the T/C (endpoint: median survival time, dose: 3.0 mg/kg/injection, schedule: Q01DX009 (ip), vehicle: saline with Tween-80)?
Its T/C is 115 % of control.

What about the T/C (endpoint: median survival time, dose: 6.0 mg/kg/injection, schedule: Q01DX009 (ip), vehicle: saline with Tween-80) of the same compound?
The T/C was 119 % of control.

What about the T/C (endpoint: median survival time, dose: 24.0 mg/kg/injection, schedule: Q01DX009 (ip), vehicle: saline with Tween-80) of the same compound?
Its T/C is 166 % of control and 168 % of control.

What about the T/C (endpoint: median survival time, dose: 48.0 mg/kg/injection, schedule: Q01DX009 (ip), vehicle: saline with Tween-80) of the same compound?
Its T/C is 98 % of control and 111 % of control.

For COc1ccc(C(=O)Nc2ccc(Br)cc2)cc1, which T/C [1] is on record?
The T/C was 93 % of control.

And the T/C [2]?
The T/C was 108 % of control.

What about the T/C [3] of the same compound?
Its T/C is 98 % of control.

O=C1C=CC(=O)N1c1ccc(Cl)cc1Br was tested. Which T/C (endpoint: mean survival time, dose: 5.0 mg/kg/injection, schedule: Q04DX003 (ip), vehicle: saline with Tween-80) did it give?
The T/C was 95 % of control.

What about the T/C (endpoint: mean survival time, dose: 10.0 mg/kg/injection, schedule: Q04DX003 (ip), vehicle: saline with Tween-80) of the same compound?
Its T/C is 89 % of control.

What about the T/C (endpoint: mean survival time, dose: 20.0 mg/kg/injection, schedule: Q04DX003 (ip), vehicle: saline with Tween-80) of the same compound?
Its T/C is 92 % of control.

Which results are given for CN(C)CCCN=C(N)CSP(=O)(O)O?
T/C (endpoint: mean survival time, dose: 100.0 mg/kg/injection, schedule: Q04DX002 (ip), vehicle: saline): 102 % of control; T/C (endpoint: mean survival time, dose: 200.0 mg/kg/injection, schedule: Q04DX002 (ip), vehicle: saline): 109 % of control

For C#CCO, which T/C (endpoint: mean survival time, dose: 12.0 mg/kg/injection, schedule: Q04DX003 (ip), vehicle: saline) is on record?
The T/C was 94 % of control.

What about the T/C (endpoint: mean survival time, dose: 25.0 mg/kg/injection, schedule: Q04DX003 (ip), vehicle: saline) of the same compound?
The T/C was 97 % of control.

What about the T/C (endpoint: mean survival time, dose: 50.0 mg/kg/injection, schedule: Q04DX003 (ip), vehicle: saline) of the same compound?
Its T/C is 103 % of control.

Nc1ncnc2c1c(CO)cn2C1OC(CO)C(O)C1O (configuration not stated) was tested. Which T/C [4] did it give?
The T/C was 109 % of control.

What about the T/C [5] of the same compound?
Its T/C is 117 % of control.

What about the T/C (endpoint: mean survival time, dose: 100.0 mg/kg/injection, schedule: Q01DX005 (ip), vehicle: distilled water + Tween-80) of the same compound?
Its T/C is 113 % of control.

Which T/C (endpoint: mean survival time, dose: 12.5 mg/kg/injection, schedule: Q04DX003 (ip), vehicle: saline with Tween-80) does the source give for COc1cc2ccc(CCN)cc2cc1OC here?
The T/C was 102 % of control.

And the T/C (endpoint: mean survival time, dose: 25.0 mg/kg/injection, schedule: Q04DX003 (ip), vehicle: saline with Tween-80)?
Its T/C is 102 % of control.

What about the T/C (endpoint: mean survival time, dose: 50.0 mg/kg/injection, schedule: Q04DX003 (ip), vehicle: saline with Tween-80) of the same compound?
The T/C was 96 % of control.

With C[C@@H]1C[C@H]2CC[C@H](O2)[C@H](C)C(=O)O[C@@H](C)C[C@@H]2CC[C@@H](O2)[C@@H](C)C(=O)O[C@H](C)C[C@H]2CC[C@H](O2)[C@H](C)C(=O)O[C@@H](C)C[C@@H]2CC[C@@H](O2)[C@@H](C)C(=O)O1 as the compound, how does the T/C (endpoint: mean survival time, dose: 8.0 mg/kg/injection, schedule: Q01DX008 (iv), vehicle: saline) read?
The T/C was 98 % of control.

What about the T/C (endpoint: mean survival time, dose: 16.0 mg/kg/injection, schedule: Q01DX008 (iv), vehicle: saline) of the same compound?
Its T/C is 98 % of control.

What about the T/C (endpoint: mean survival time, dose: 32.0 mg/kg/injection, schedule: Q01DX008 (iv), vehicle: saline) of the same compound?
The T/C was 95 % of control.

What does the source list for CC(=O)NC1=CC(OC(C)=O)C(COC(C)=O)OC1n1cnc2c1c(=O)n(C)c(=O)n2C (configuration not stated)?
T/C (endpoint: mean survival time, dose: 12.5 mg/kg/injection, schedule: Q01DX005 (ip), vehicle: distilled water + Tween-80): 93 % of control; T/C [4]: 88 % of control; T/C [5]: 88 % of control; T/C (endpoint: mean survival time, dose: 200.0 mg/kg/injection, schedule: Q01DX005 (ip), vehicle: distilled water + Tween-80): 88 % of control

CC1=CC(O)(c2ccccc2)C(C)=CC1=O (configuration not stated) was tested. Which T/C (endpoint: mean survival time, dose: 100.0 mg/kg/injection, schedule: Q01DX001 (ip), vehicle: saline with Tween-80) did it give?
The T/C was 97 % of control.

What about the T/C (endpoint: mean survival time, dose: 200.0 mg/kg/injection, schedule: Q01DX001 (ip), vehicle: saline with Tween-80) of the same compound?
The T/C was 97 % of control.

What about the T/C (endpoint: mean survival time, dose: 400.0 mg/kg/injection, schedule: Q01DX001 (ip), vehicle: saline with Tween-80) of the same compound?
The T/C was 93 % of control.

How did the T/C (endpoint: mean survival time, dose: 100.0 mg/kg/injection, schedule: Q04DX003 (ip), vehicle: saline with Tween-80) turn out when COc1cc(C(=O)N(C(C)C)C2CCCCC2)cc(OC)c1OC was run?
The T/C was 104 % of control.

What about the T/C (endpoint: mean survival time, dose: 200.0 mg/kg/injection, schedule: Q04DX003 (ip), vehicle: saline with Tween-80) of the same compound?
Its T/C is 96 % of control.

O=C(O)C1CC1.[Ag] was tested. Which T/C (endpoint: mean survival time, dose: 0.78 mg/kg/injection, schedule: Q01DX009 (ip), vehicle: water) did it give?
Its T/C is 100 % of control.

What about the T/C (endpoint: mean survival time, dose: 1.56 mg/kg/injection, schedule: Q01DX009 (ip), vehicle: water) of the same compound?
The T/C was 100 % of control.

And the T/C (endpoint: mean survival time, dose: 3.12 mg/kg/injection, schedule: Q01DX009 (ip), vehicle: water)?
Its T/C is 96 % of control.

And the T/C (endpoint: mean survival time, dose: 6.25 mg/kg/injection, schedule: Q01DX009 (ip), vehicle: water)?
Its T/C is 102 % of control.

And the T/C (endpoint: mean survival time, dose: 12.5 mg/kg/injection, schedule: Q01DX009 (ip), vehicle: water)?
Its T/C is 102 % of control.

And the T/C (endpoint: mean survival time, dose: 25.0 mg/kg/injection, schedule: Q01DX009 (ip), vehicle: water)?
Its T/C is 104 % of control.

And the T/C (endpoint: mean survival time, dose: 100.0 mg/kg/injection, schedule: Q04DX003 (ip), vehicle: saline)?
The T/C was 93 % of control.

What about the T/C (endpoint: mean survival time, dose: 200.0 mg/kg/injection, schedule: Q04DX003 (ip), vehicle: saline) of the same compound?
The T/C was 93 % of control.

How did the T/C (endpoint: mean survival time, dose: 50.0 mg/kg/injection, schedule: Q04DX003 (ip), vehicle: other) turn out when S=C(SN1CCCCC1)N1CCCCC1 was run?
The T/C was 96 % of control.

And the T/C (endpoint: mean survival time, dose: 100.0 mg/kg/injection, schedule: Q04DX003 (ip), vehicle: other)?
The T/C was 96 % of control.

And the T/C (endpoint: mean survival time, dose: 200.0 mg/kg/injection, schedule: Q04DX003 (ip), vehicle: other)?
The T/C was 91 % of control.

C[N+]1(C)CCC(c2ccccc2)(c2ccccc2)C(=O)C1 was tested. Which T/C (endpoint: mean survival time, dose: 75.0 mg/kg/injection, schedule: Q01DX001 (ip), vehicle: saline) did it give?
The T/C was 101 % of control.

What about the T/C (endpoint: mean survival time, dose: 150.0 mg/kg/injection, schedule: Q01DX001 (ip), vehicle: saline) of the same compound?
The T/C was 101 % of control.

CCN(c1ccccc1)S(=O)(=O)CS(=O)(=O)N(CC)c1ccccc1 was tested. Which T/C (endpoint: mean survival time, dose: 100.0 mg/kg/injection, schedule: Q01DX001 (ip), vehicle: Klucel (hydroxypropylcellulose) (HPC)) did it give?
The T/C was 104 % of control.

And the T/C (endpoint: mean survival time, dose: 200.0 mg/kg/injection, schedule: Q01DX001 (ip), vehicle: Klucel (hydroxypropylcellulose) (HPC))?
The T/C was 96 % of control.

And the T/C (endpoint: mean survival time, dose: 400.0 mg/kg/injection, schedule: Q01DX001 (ip), vehicle: Klucel (hydroxypropylcellulose) (HPC))?
Its T/C is 93 % of control.

Which results are given for Cn1c(=O)[nH]c2c(nc(-c3ccccc3)n2C)c1=O?
T/C (endpoint: mean survival time, dose: 12.5 mg/kg/injection, schedule: Q01DX005 (ip), vehicle: other): 87 % of control; T/C (endpoint: mean survival time, dose: 25.0 mg/kg/injection, schedule: Q01DX005 (ip), vehicle: other): 96 % of control; T/C (endpoint: mean survival time, dose: 50.0 mg/kg/injection, schedule: Q01DX005 (ip), vehicle: other): 89 % of control; T/C (endpoint: mean survival time, dose: 100.0 mg/kg/injection, schedule: Q01DX005 (ip), vehicle: other): 94 % of control
